From PMC3963471 (Bioorganic & medicinal chemistry letters, 2013)
Blank lines part the entries; values can stand above or below the compound they belong to.

Columns and labels:
S1P2-R = S1P2-R (Homo sapiens, UniProt O95136); test: S1P2-R selectivity counter screen; format: cell-based; settings: at concentrations up to 50 µM
S1P4-R = biological target: T1, S1P4-R (Homo sapiens, UniProt O95977); test: S1P4-R selectivity counter screen; format: cell-based; settings: at concentrations up to 50 µM
T1 sequence (O95977 1-384): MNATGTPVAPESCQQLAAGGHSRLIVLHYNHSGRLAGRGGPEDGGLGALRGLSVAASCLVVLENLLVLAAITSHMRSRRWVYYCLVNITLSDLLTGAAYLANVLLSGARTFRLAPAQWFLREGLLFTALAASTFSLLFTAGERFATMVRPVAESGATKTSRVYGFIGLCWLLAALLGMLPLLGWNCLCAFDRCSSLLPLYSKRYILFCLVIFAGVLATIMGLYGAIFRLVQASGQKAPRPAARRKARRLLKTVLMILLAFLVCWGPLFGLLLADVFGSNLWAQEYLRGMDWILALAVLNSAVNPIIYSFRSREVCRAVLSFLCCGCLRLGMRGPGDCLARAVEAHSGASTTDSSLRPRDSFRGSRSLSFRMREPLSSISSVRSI

S1P3-R [1] = biological target: T2, S1P3-R (Homo sapiens, UniProt Q99500); test: S1P3-R agonist assay, CHO NFAT-BLA reporter; format: cell-based; settings: for loss in potency for the S1P3-R relative to hit 1a: less potent than 1a; for selectivity against S1P1,2,4,5-R subtypes (in words): S1P3-R agonist versus remaining subtypes; for loss of potency at S1P3-R relative to 5f: less potent than 5f
T2 sequence (Q99500 whole entry): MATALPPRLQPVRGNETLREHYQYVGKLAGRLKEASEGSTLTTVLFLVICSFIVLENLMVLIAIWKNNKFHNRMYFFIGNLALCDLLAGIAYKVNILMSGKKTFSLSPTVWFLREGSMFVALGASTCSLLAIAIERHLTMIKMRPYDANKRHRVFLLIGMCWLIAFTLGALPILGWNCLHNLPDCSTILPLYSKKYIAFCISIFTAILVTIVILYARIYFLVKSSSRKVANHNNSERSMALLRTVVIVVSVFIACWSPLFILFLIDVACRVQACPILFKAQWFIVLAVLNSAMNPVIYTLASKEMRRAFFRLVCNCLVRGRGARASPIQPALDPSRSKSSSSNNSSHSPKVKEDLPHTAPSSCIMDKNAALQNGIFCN

S1P1-R = S1P1-R (Homo sapiens, UniProt P21453); test: S1P1-R agonist assay; format: cell-based
Sequence of S1P1-R (P21453 whole entry): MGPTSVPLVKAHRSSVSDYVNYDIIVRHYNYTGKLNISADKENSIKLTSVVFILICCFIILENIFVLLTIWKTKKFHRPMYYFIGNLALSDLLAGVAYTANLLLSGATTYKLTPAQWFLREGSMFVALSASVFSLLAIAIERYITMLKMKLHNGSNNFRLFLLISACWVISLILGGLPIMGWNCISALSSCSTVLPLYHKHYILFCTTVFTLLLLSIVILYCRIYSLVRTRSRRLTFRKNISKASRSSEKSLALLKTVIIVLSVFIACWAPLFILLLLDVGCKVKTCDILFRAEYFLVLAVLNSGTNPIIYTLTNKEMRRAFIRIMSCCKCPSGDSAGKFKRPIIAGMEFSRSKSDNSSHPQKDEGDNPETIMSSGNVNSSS

[2] = tested on: Ricerca panel of off target proteins including GPCRs, enzymes and ion channels; test: Ricerca panel of off target proteins; settings: at 30 µM; targets other than those singled out
sodium channel site two = test: Ricerca panel: sodium channel site two; format: binding; settings: 30 µM; borderline inhibition
S1P3-R [3] = biological target: T2, S1P3-R; test: [33P]S1P competitive binding experiment in S1P3 jump-in CHO cells; settings: 0.1 nM [33P]S1P; competitor 0.001 nM to 10 µM; 4 °C, 30 min

Sequence of S1P2-R (O95136 whole entry): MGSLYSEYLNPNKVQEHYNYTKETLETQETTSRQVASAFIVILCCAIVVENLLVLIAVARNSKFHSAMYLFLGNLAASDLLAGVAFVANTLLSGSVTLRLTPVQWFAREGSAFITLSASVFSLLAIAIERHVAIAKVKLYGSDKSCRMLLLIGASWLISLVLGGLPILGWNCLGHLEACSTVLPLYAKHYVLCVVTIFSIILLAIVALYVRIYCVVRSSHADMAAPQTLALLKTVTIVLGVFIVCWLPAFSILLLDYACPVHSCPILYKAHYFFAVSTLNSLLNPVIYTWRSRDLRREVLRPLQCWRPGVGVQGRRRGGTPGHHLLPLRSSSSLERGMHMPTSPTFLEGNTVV

agonist activity at S1P2-R (S1P2-R): no agonist activity
agonist activity at S1P4-R (S1P4-R): no agonist activity
SMILES: CCCc1cc(C(=O)N(C2CCCCC2)C2CCCCC2)no1 [Compd 1a, N,N-dicyclohexyl-5-propylisoxazole-3-carboxamide]

loss in potency for the S1P3-R relative to hit 1a (S1P3-R [1]): 18 fold
loss in potency for the S1P1-R relative to hit 1a (S1P1-R; less potent than 1a): three-fold
SMILES: CCCc1cc(C(=O)N(C2CCCCC2)C2CCCC2)no1 [Compd 1b]

activity at S1P3-R (in words) (S1P3-R [1]): complete loss of potency
activity at S1P1-R (in words) (S1P1-R): complete loss of potency
SMILES: CCCc1cc(C(=O)NC2CCCCC2)no1 [Compd 1c]

activity at S1P3-R (in words) (S1P3-R [1]): complete loss of potency
activity at S1P1-R (in words) (S1P1-R): complete loss of potency
SMILES: CCCc1cc(C(=O)N(c2ccccc2)C2CCCCC2)no1 [Compd 1d]

loss in potency for the S1P3-R relative to hit 1a (S1P3-R [1]): three-fold
less selective against the S1P1-R than the hit (S1P1-R; S1P3-R over S1P1-R, relative to 1a): four-fold
SMILES: CC(C)Cc1cc(C(=O)N(C2CCCCC2)C2CCCCC2)no1 [Compd 5a]

loss in potency for the S1P3-R relative to hit 1a (S1P3-R [1]): two-fold
SMILES: CC(C)c1cc(C(=O)N(C2CCCCC2)C2CCCCC2)no1 [Compd 5b]

SMILES: Cc1cc(C(=O)N(C2CCCCC2)C2CCCCC2)no1 [Compd 5c]
loss in potency for the S1P3-R relative to hit 1a (S1P3-R [1]): 15 fold

activity at S1P1-R (in words) (S1P1-R): inactive
SMILES: O=C(c1cc(C2CCCCC2)on1)N(C1CCCCC1)C1CCCCC1 [Compd 5d]

activity at S1P1-R (in words) (S1P1-R): inactive
SMILES: O=C(c1cc(C2CCCC2)on1)N(C1CCCCC1)C1CCCCC1 [Compd 5e]

SMILES: O=C(c1cc(C2CC2)on1)N(C1CCCCC1)C1CCCCC1 [Compd 5f, N,N-dicyclohexyl-5-cyclopropylisoxazole-3-carboxamide]
selectivity against S1P1,2,4,5-R subtypes (in words) (S1P3-R [1]): exquisitely selective
more potent than the hit at S1P3-R (S1P3-R [1]; relative to 1a): four-fold
stimulation/inhibition of panel targets [2]: < 50%
inhibition of sodium channel site two (sodium channel site two): ≥ 50%
competition with [33P]S1P for the S1P3-R binding pocket (S1P3-R [3]): does not compete

selectivity against the S1P1-R (S1P1-R; S1P3-R over S1P1-R): less than three-fold
SMILES: COc1ccc(-c2cc(C(=O)N(C3CCCCC3)C3CCCCC3)no2)cc1 [Compd 5h]

loss in potency for the S1P3-R relative to hit 1a (S1P3-R [1]): 18 fold
SMILES: CCOc1ccc(-c2cc(C(=O)N(C3CCCCC3)C3CCCCC3)no2)cc1OCC [Compd 5i]

activity at S1P3-R (in words) (S1P3-R [1]): complete loss of activity
SMILES: O=C(NC1CCCCC1)c1cc(C2CC2)on1 [Compd 7a]

loss of potency at S1P3-R relative to 5f (S1P3-R [1]): 16 fold
SMILES: O=C(c1cc(C2CC2)on1)N(C1CCCCC1)C1CCCC1 [Compd 7b]

loss of potency at S1P3-R relative to 5f (S1P3-R [1]): 33 fold
SMILES: O=C(c1cc(C2CC2)on1)N(C1CCCCC1)C1CCOCC1 [Compd 7c]

loss of potency at S1P3-R relative to 5f (S1P3-R [1]): 32 fold
SMILES: O=C(c1cc(C2CC2)on1)N(CC1CCCCC1)C1CCCCC1 [Compd 7d]

selectivity against S1P1,2,4,5-R subtypes (in words) (S1P3-R [1]): exquisitely selective
loss of potency at S1P3-R relative to 5f (S1P3-R [1]): three-fold
SMILES: CC1CCCCC1N(C(=O)c1cc(C2CC2)on1)C1CCCCC1 (centres unmarked) [Compd 7e]

selectivity against S1P1,2,4,5-R subtypes (in words) (S1P3-R [1]): exquisitely selective
loss of potency at S1P3-R relative to 5f (S1P3-R [1]): two-fold
SMILES: CC1CCCCC1N(C(=O)c1cc(C2CC2)on1)C1CCCCC1C (centres unmarked) [Compd 7f]

less potent than 7e at S1P3-R (S1P3-R [1]; relative to 7e): almost two-fold
SMILES: CC1CCCCC1N(C(=O)c1cc(C2CC2)on1)C1CCCCCC1 (centres unmarked) [Compd 7g]

loss of potency at S1P3-R relative to 5f (S1P3-R [1]): 26 fold
SMILES: O=C(c1cc(C2CC2)on1)N(C1CCCCCC1)C1CCCC1 [Compd 7j]

activity at S1P3-R (in words) (S1P3-R [1]): drastic loss in potency
SMILES: O=C(c1cc(C2CC2)on1)N(Cc1ccccc1)c1ccccc1 [Compd 7k]

activity at S1P3-R (in words) (S1P3-R [1]): drastic loss in potency
SMILES: O=C(c1cc(C2CC2)on1)N(Cc1ccccc1)c1ccccn1 [Compd 7l]

activity at S1P3-R (in words) (S1P3-R [1]): inactive
SMILES: O=C(c1coc(C2CC2)n1)N(C1CCCCC1)C1CCCCC1 [Compd 9a]

activity at S1P3-R (in words) (S1P3-R [1]): inactive
activity at S1P1-R (in words) (S1P1-R): micromolar activity
SMILES: O=C(c1ccc(C2CC2)o1)N(C1CCCCC1)C1CCCCC1 [Compd 9b]

activity at S1P3-R (in words) (S1P3-R [1]): inactive
SMILES: O=C(c1noc2ccccc12)N(C1CCCCC1)C1CCCCC1 [Compd 9c]

competition with [33P]S1P for the S1P3-R binding pocket (S1P3-R [3]): competes
SMILES: CCCCCCCCCCCCC/C=C/[C@@H](O)[C@@H](N)COP(=O)(O)O [S1P, Sphingosine-1-phosphate, reference compound]
